Earlier results on 1 compound are cited in patent publication US20220387454A1, “NUTRITIONAL COMPOSITION FOR VISUAL FUNCTION” (OMNIACTIVE HEALTH TECHNOLOGIES LIMITED, priority 2019, published 2022).

The test system of the data set is patients with dry eye syndrome (DES) refractory to conventional treatment with vitamin D deficiency. To be noted: intramuscular 200,000 IU, p<0.05.

Take `C=C1CC[C@H](O)C/C1=C/C=C1\CCC[C@]2(C)[C@@H]([C@H](C)CCCC(C)C)CC[C@@H]12` [cholecalciferol]: under “2, 6, and 10 weeks”, the Eyelid margin hyperemia result is “showed improvement” and the Severity of symptoms result is listed as “showed improvement”. For the setting “2 and 6 weeks vs pre-treatment”, the “Tear break-up time (TBUT)” value was “showed an improvement” and the Tear secretion test entry was “showed an improvement”. Where the note is “2 weeks vs pre-treatment”, the “Fluorescein staining score (FSS)” value is “decreased”, the “Ocular surface disease index (OSDI)” value is reported as “decreased” and the “Visual analogue pain score (VAS)” value is given as “decreased”.
